Like-named read-outs stand apart in the source and are kept apart here.
Legend:
[1] = tested on: patients with long episodes of either paroxysmal or persistent AFib; assay: Duration of AFib episodes under incremental b.i.d. doses of budiodarone (pacemaker monitoring); format: in vivo; conditions: for Average Episode duration: baseline 4.8 hrs
Method: (§1) In this example, patients were selected with long episodes of either paroxysmal or persistent AFib. Each of the patients was implanted with a pacemaker which monitored their heart rhythm. Patients were then evaluated for disease progression by monitoring their heart rhythm without budiodarone treatment in order to generate a baseline level of the duration of episodes of AFib. The baseline data was collected over two weeks. Patients were then given incremental doses of budiodarone at 200 mg b.i.d; 400 mg b.i.d.; 600 mg b.i.d.; and 800 mg b.i.d. where each dose was maintained for 2 weeks for a total of 4 treatment periods. A two-week washout period was employed after the completion of the 800 mg b.i.d. treatment period, wherein a washout period is the time after the last treatment to avoid misinterpreting observations about study-related treatments that may have been due to prior therapies. Pacemaker data were downloaded on days 8 and 14 of each two-week cycle and averages for each test period are shown. Blood was collected during each cycle and tested for the concentration of budiodarone.

[2] = Trough plasma concentration of budiodarone during b.i.d. dosing cycles and washout; format: in vivo, patients
Method: (§2) It is noted that budiodarone concentrations used in the examples below include both the free acid and the free base versions of budiodarone.
as §1

[3] = Budiodarone concentrations in plasma over time after different single doses (FIG. 1); format: in vivo, patients
Method: as §2
In this example, plasma concentrations of budiodarone were evaluated using different single-dosing amounts of the drug. […] The resulting data was placed on a graph and the data for each concentration provided for both a Cmax for the dose employed as well as a trough value at 6 hours.

[4] = Impact of food on plasma budiodarone concentration, fasting versus fed (FIG. 2); format: in vivo, patients
Method: This example evaluates the impact on plasma budiodarone concentrations based on a fasting or fed patient. In this example, patients were either fasting or fed before the administration of budiodarone. After budiodarone administration, blood was collected from the patients, and the plasma concentration of budiodarone was determined. FIG. 2 illustrates that in the same dosing of budiodarone, the uptake of budiodarone increased as evidenced by the Cmax values.

[5] = cited from earlier work

Compound: CC[C@H](C)OC(=O)Cc1oc2ccccc2c1C(=O)c1cc(I)c(OCCN(CC)CC)c(I)c1 [budiodarone, (S)-sec-butyl2-(3-(4-(2-(diethylamino)ethoxy)-3,5-diiodobenzoyl)benzofuran-2-yl)acetate]
- Average Episode duration ([1]; 200 mg bid for 2 weeks, average of pacemaker downloads on days 8 and 14): 1.7 h
- Average Episode duration ([1]; 400 mg bid for 2 weeks): 0.6 h
- longest average duration of AFib ([1]; 600 mg b.i.d.): 6 min
- Average Episode duration ([1]; 600 mg bid for 2 weeks): 0.1 h
- Average Episode duration ([1]; 800 mg bid for 2 weeks): 0.5 h
- maximum duration AFib levels ([1]; all dosing levels from 400 mg b.i.d. to 800 mg b.i.d.): less than 45 minutes
- Average Episode duration ([1]; two-week washout after 800 mg bid): 2.4
- Trough Pk levels ng/ml in plasma ([2]; 200 mg bid, doses approximately 12 hours apart): 2.4 +/ ng/ml
- Trough Pk levels ng/ml in plasma ([2]; 400 mg bid, doses approximately 12 hours apart): 5.2 +/ ng/ml
- Trough Pk levels ng/ml in plasma ([2]; 600 mg bid, doses approximately 12 hours apart): 13.1 +/ ng/ml
- Trough Pk levels ng/ml in plasma ([2]; 800 mg bid, doses approximately 12 hours apart): 19.8 +/ ng/ml
- washout trough concentration as share of the trough concentration at 800 mg b.i.d. ([2]; 2 weeks post 800 mg b.i.d.): about 1.5%
- concentration at 12 h ([2]; human, plasma, 800 mg b.i.d., doses approximately 12 hours apart, read-out: Trough Pk levels ng/ml in plasma): 19.8 ng/mL
- concentration at 2 weeks ([2]; human, plasma, 800 mg b.i.d., washout, 2 weeks post 800 mg bid, read-out: Trough Pk levels ng/ml in plasma): 0.3 ng/mL
- Trough Pk levels ng/ml in plasma ([2]; washout, 2 weeks post 800 mg bid): 0.3 +/ ng/ml
- plasma concentration maintained for over 6 hours ([3]; each single dose at or above 400 mg): greater than 13 ng/mL
- plasma level maintained for at least 6 hours ([3]; high dosing, bolus such as 1,000 mg): above 13 ng/mL
- plasma concentration for up to about 6 hours ([3]; high single dose (about 800 mg to 1200 mg), see FIG. 1): over 40 ng/mL
- Cmax ([3]; human, plasma, oral, 1000 mg, bolus such as 1,000 mg, read-out: Cmax concentration in plasma): > 300 ng/mL
- concentration at 8 h ([3]; human, plasma, oral, 1000 mg, bolus such as 1,000 mg, read-out: plasma concentration in about 8 hours): < 20 ng/mL
- Cmax ([3]; human, plasma, oral, each single dose at or above 400 mg, plasma, read-out: Cmax): > 50 ng/mL
- Cmax ([3]; human, plasma, oral, high single dose (about 800 mg to 1200 mg), see FIG. 1, read-out: Cmax): ≤ 350 ng/mL
- concentration at 6 h ([3]; human, plasma, oral, single dose at 800 mg or 1,000 mg): ~50 ng/mL
- concentration at 8 h ([3]; human, plasma, oral, single dose at 800 mg or 1,000 mg, read-out: plasma concentration at 8 hours): ≥ 15 ng/mL
- shift in time of Cmax in the fed group versus fasted patients ([4]; fed versus fasted patients): about an hour later
- uptake of budiodarone as evidenced by the Cmax values, fed versus fasting ([4]; same dosing of budiodarone, fed versus fasting patients): increased
- effective plasma level within 60 min, maintained for up to 6 hours ([4]; single oral dose of 400-1,000 mg, whether or not taken with food): > 50 ng/mL
- half-life compared with amiodarone [5]: much shorter half-life than amiodarone
- effect on QT interval ([5]; while reducing episodes of long-duration AFib): without a significant increase in the QT interval
